According to patent US7989464B2, “mGluR1 antagonists as therapeutic agents” (Schering Corporation, priority 2004, dated 2011):
pIC50: −log10 of the molar value. Where two headings read alike, the source gives them in different places.

Biological target: T1, hmGluR1 receptor (Homo sapiens, UniProt Q13255)
T1 construct: expressed in transfected cells
Experiment: IC50 determination: intracellular calcium mobilization (FLIPR) upon Quisqualate stimulation in CHO cells stably expressing hmGluR1
Type: cell-based
Conditions: against Quisqualate 1 μM (EC80)
In short: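 CHO cells stably expressing hmGluR1 were kept overnight in DMEM high glucose with GPT and 1 mM pyruvate, then loaded 2 h with Calcium 3 dye.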

[1] = FLIPR calcium mobilization, read-out: IC50 Class
[2] = class symbols, read-out: mGIuR 1 IC50
[3] = FLIPR calcium mobilization, read-out: mGluR1 IC50

T1 sequence (Q13255 19-1194): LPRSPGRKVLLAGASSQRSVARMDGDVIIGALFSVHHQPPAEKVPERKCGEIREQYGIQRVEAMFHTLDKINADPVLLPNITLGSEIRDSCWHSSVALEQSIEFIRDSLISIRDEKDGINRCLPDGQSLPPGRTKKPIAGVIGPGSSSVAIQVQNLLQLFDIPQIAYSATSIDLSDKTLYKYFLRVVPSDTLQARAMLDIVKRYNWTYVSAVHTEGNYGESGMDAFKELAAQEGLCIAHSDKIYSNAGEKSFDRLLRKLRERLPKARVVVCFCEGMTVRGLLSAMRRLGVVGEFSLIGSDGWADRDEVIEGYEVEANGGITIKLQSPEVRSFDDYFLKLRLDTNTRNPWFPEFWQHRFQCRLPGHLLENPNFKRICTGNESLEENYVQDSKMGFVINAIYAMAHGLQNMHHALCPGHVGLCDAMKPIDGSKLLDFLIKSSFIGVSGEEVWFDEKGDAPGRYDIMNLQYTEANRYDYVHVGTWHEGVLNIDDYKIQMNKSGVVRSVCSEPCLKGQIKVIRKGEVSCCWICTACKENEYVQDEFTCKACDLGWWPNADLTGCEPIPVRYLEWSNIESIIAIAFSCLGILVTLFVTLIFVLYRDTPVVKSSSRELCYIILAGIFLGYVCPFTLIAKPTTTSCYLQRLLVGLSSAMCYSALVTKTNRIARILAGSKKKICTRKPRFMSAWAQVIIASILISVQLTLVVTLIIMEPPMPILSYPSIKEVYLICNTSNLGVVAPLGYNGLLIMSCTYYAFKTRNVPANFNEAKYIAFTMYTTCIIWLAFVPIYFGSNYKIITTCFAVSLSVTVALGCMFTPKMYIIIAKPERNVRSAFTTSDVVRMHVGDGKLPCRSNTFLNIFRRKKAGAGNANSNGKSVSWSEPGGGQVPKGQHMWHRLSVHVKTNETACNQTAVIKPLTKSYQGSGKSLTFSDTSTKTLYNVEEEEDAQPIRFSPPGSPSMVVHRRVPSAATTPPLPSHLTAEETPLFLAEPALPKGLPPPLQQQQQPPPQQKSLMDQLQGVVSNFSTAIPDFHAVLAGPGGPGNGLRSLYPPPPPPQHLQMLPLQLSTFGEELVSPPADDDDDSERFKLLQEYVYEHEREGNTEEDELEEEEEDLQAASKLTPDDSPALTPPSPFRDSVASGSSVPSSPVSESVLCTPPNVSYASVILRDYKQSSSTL

pIC50 [1]	pIC50 [2]	Compound	other results
> 7.30		Cc1ccc(-n2cnc3c(sc4nccc(NC5CC5)c43)c2=O)cc1F [131L]	
	> 7.30	COc1ccc(-n2cnc3c(sc4nccc(N)c43)c2=O)cc1 [72C]	
< 6.00		COc1ccnc2sc3c(=O)n(-c4ccc5c(c4)OCO5)cnc3c12 [28FY]	
6.00 to 6.82		Cc1ccc(-n2cnc3c(sc4nccc(NC5CCC(O)CC5)c43)c2=O)cc1 (stereo not shown) [28DE]	
	< 6.00	O=C(Nc1ccnc2sc3c(=O)n(C4CCCCC4)cnc3c12)c1ccccc1 [73C]	
	6.82 to 7.30	CN(C)c1c(Cl)cnc2sc3c(=O)n(C4CCCCC4)cnc3c12 [compound 41]	
> 7.30		CNc1ncnc2sc3c(=O)n(-c4ccc5scnc5c4)cnc3c12 [95BG]	
< 6.00		COc1ccc(-n2cnc3c(sc4ncnc(Nc5ccccc5)c43)c2=O)cc1F [95GA]	
> 7.30		O=c1c2sc3nccc(NCCO)c3c2ncn1-c1ccc2occc2c1 [28BD]	
	> 7.30	CCN(C)c1ncnc2sc3c(=O)n(-c4ccc(C)nc4)cnc3c12 [95U]	
6.00 to 6.82		COc1ccc(-n2cnc3c(sc4nccc(OC)c43)c2=O)cc1F [28FX]	
> 7.30		CON(C)c1ccnc2sc3c(=O)n(-c4ccc(Cl)cc4)cnc3c12 [28DN]	
	6.00 to 6.82	Cc1cc(N(C)C)c2c(n1)sc1c(=O)n(-c3cccnc3)cnc12 [7DD]	
	6.00 to 6.82	O=c1c2sc3nccc(Cl)c3c2ncn1-c1ccccc1 [compound 13]	
	< 6.00	O=c1c2sc3nccc(NC4CCCCC4)c3c2ncn1-c1ccccc1 [28D]	
	6.00 to 6.82	Cc1ccc(-n2c(C(F)(F)F)nc3c(sc4nccc(N(C)C)c43)c2=O)cc1 [117A]	
	> 7.30	CNc1c(Br)cnc2sc3c(=O)n(-c4ccc(OC)cc4)cnc3c12 [compound 152]	
6.00 to 6.82		COc1ccc(-n2cnc3c(sc4ncnc(NCc5ccco5)c43)c2=O)cc1 [95GQ]	
> 7.30		CNc1ncnc2sc3c(=O)n(-c4ccc(OC)c(F)c4)cnc3c12 [95BF]	
	6.00 to 6.82	CN(C)c1ccnc2sc3c(=O)n(CC4CCCO4)cnc3c12 (stereo not shown) [15F]	
	< 6.00	COc1cc(Cl)nc2sc3c(=O)n(C4CCCCC4)cnc3c12 [compound 78]	
6.00 to 6.82		O=c1c2sc3nccc(NC4CC4)c3c2ncn1-c1ccncc1 [28ED]	
	< 6.00	Cc1nc2cc(-n3cnc4c(sc5nccc(N(C)C)c54)c3=O)ccc2s1 [7AT]	
	6.82 to 7.30	CC#CCNc1ccnc2sc3c(=O)n(-c4ccc(C)cc4)cnc3c12 [28AD]	
> 7.30		C=C(Cl)CNc1ccnc2sc3c(=O)n(-c4ccc(C)cc4)cnc3c12 [28EY]	

pIC50 [1]	pIC50 [2]	Compound	other results
6.82 to 7.30		O=c1c2sc3nccc(N4CCC4)c3c2ncn1-c1ccc(Cl)cc1 [28GJ]	
6.00 to 6.82		C=C(C)CNc1ncnc2sc3c(=O)n(-c4ccncc4)cnc3c12 [95FJ]	
	> 7.30	CNc1ccnc2sc3c(=O)n(-c4ccccc4)c(C)nc3c12 [113E]	
	6.00 to 6.82	CS(=O)(=O)N1CCN(c2ccnc3sc4c(=O)n(C5CCCCC5)cnc4c23)CC1 [compound 63]	
6.82 to 7.30		C=C(C)CNc1ccnc2sc3c(=O)n(-c4ccc(OC)c(F)c4)cnc3c12 [28FE]	
	6.00 to 6.82	CN(C)c1ccnc2sc3c(=O)n(-c4ccc5[nH]ncc5c4)cnc3c12 [7AN]	
	> 7.30	CN(C)c1ccnc2sc3c(=O)n(-c4ccc(Cl)cc4)cnc3c12 [P-2]	
> 7.30		CSCCNc1ncnc2sc3c(=O)n(-c4ccc(Cl)cc4)cnc3c12 [95FS]	
	> 7.30	Cc1ccc(-n2cnc3c(sc4ncnc(N(C)C)c43)c2=O)cn1 [95O]	
	< 6.00	Cc1nc2ccc(-n3cnc4c(sc5nccc(N(C)C)c54)c3=O)cc2o1 [7BT]	
> 7.30		C=CCOc1ccnc2sc3c(=O)n(-c4ccc(Cl)cc4)cnc3c12 [66F]	
	< 6.00	CN(C)c1ccnc2sc3c(=O)n(N)cnc3c12 [60H]	
	> 7.30	CN(C)c1ccnc2sc3c(=O)n(-c4ccc(C(F)(F)F)cc4)cnc3c12 [7DO]	
6.00 to 6.82		O=c1c2sc3ncccc3c2ncn1-c1ccc(Cl)cc1 [183B]	
> 7.30		COCCCNc1ccnc2sc3c(=O)n(-c4ccc(O)cc4)cnc3c12 [28HW]	
> 7.30		CNc1c(Br)cnc2sc3c(=O)n(-c4ccc(Cl)cc4)cnc3c12 [compound 188]	
	6.82 to 7.30	CCc1nc2c(sc3nccc(N(C)C)c32)c(=O)n1-c1ccc(C)cc1 [116A]	
6.82 to 7.30		CNc1c(C#N)cnc2sc3c(=O)n(-c4ccc(Cl)cc4)cnc3c12 [compound 189]	
	> 7.30	Cc1ccc(-n2cnc3c(sc4nc(C)cc(N(C)C)c43)c2=O)cc1 [7CK]	
< 6.00		CC(C)(O)c1ccnc2sc3c(=O)n(-c4ccc(Cl)cc4)cnc3c12 [compound 186]	
	> 7.30	C=Cc1ccc(-n2cnc3c(sc4nccc(N(C)C)c43)c2=O)cc1 [compound 136]	
> 7.30		CCN(C)c1ccnc2sc3c(=O)n(-c4ccc5c(c4)CCO5)cnc3c12 [28CH]	
	> 7.30	CN(C)c1ccnc2sc3c(=O)n(-c4ccc(Br)cc4F)cnc3c12 [7DU]	
> 7.30		CCc1ncnc2sc3c(=O)n(-c4ccc(Cl)cc4)cnc3c12 [compound 202]	
	> 7.30	Cc1ccc(-n2cnc3c(sc4nccc(NCCO)c43)c2=O)cc1 [28AV]	

pIC50 [1]	pIC50 [2]	Compound	other results
	6.82 to 7.30	CN(C)c1cncc2sc3c(=O)n(-c4ccc5c(c4)OCCO5)cnc3c12 [37C]	
< 6.00		O=c1c2sc3nccc(N4CCC[C@H]4CO)c3c2ncn1-c1ccc(Cl)cc1 [28GM]	
6.82 to 7.30		Cc1ccc(-n2cnc3c(sc4cnnc(N(C)C)c43)c2=O)cc1 [167B]	
> 7.30		CCN(C)c1ccnc2sc3c(=O)n(-c4cccc(F)c4)cnc3c12 [28CM]	
6.00 to 6.82		CNc1cccc2sc3c(=O)n(-c4ccc(Cl)cc4)cnc3c12 [103R]	
	< 6.00	COc1ccc(-n2cnc3c(sc4nccc(N(C)C)c43)c2=O)cc1OC [7AD]	
> 7.30		CC(C)c1ccnc2sc3c(=O)n(-c4ccc(Cl)cc4)cnc3c12 [29J]	
	< 6.00	CCCOc1ccc(-n2cnc3c(sc4nccc(N(C)C)c43)c2=O)cc1 [7AG]	
> 7.30		O=c1c2sc3nccc(NCCCO)c3c2ncn1-c1ccc2occc2c1 [28BF]	
	6.82 to 7.30	CCN(CC)c1ccnc2sc3c(=O)n(-c4ccc(OC)cc4)cnc3c12 [28AQ]	
	6.00 to 6.82	CN(C)c1ccnc2sc3c(=O)n(CC4CC4)cnc3c12 [15B]	
	6.00 to 6.82	CN(C)c1ccnc2sc3c(=O)n(-c4ccc5[nH]c(=O)[nH]c5c4)cnc3c12 [7CS]	
	< 6.00	CN(C)c1ccnc2sc3c(=O)n(Cc4ccc(Cl)c(Cl)c4)cnc3c12 [7S]	
	< 6.00	CN(C)c1ccnc2sc3c(=O)[nH]cnc3c12 [7E]	
	> 7.30	COc1ccc(-n2cnc3c(sc4nccc(N(C)C)c43)c2=O)cc1 [7BG]	
	< 6.00	CN1CCN(c2ccnc3sc4c(=O)n(C5CCCCC5)cnc4c23)CC1 [61A]	
	6.00 to 6.82	CSc1ccc(-n2cnc3c(sc4nc(C)cc(N(C)C)c43)c2=O)cc1 [7DA]	
6.00 to 6.82		CC(C)Nc1ccnc2sc3c(=O)n(-c4ccc(F)cc4)cnc3c12 [28GX]	
< 6.00		CCOC(=O)c1cnc2sc3c(=O)n(-c4ccc(OC)cc4)cnc3c2c1 [144B]	
	> 7.30	CCNc1ccnc2sc3c(=O)n(-c4ccc(OC)cc4)cnc3c12 [131A]	
	6.00 to 6.82	CN(C)c1ccnc2sc3c(=O)n(C4CCCc5ccccc54)cnc3c12 (stereo not shown) [7AI]	
	< 6.00	CN(C)c1ccnc2sc3c(=O)n(-c4nncs4)cnc3c12 [15X]	
> 7.30		C#CCN(C)c1ccnc2sc3c(=O)n(-c4ccc(Br)cc4)cnc3c12 [28DV]	pIC50 [3]: 8.73
6.00 to 6.82		COc1cccc2sc3c(=O)n(-c4ccc(Cl)cc4)cnc3c12 [103S]	
< 6.00		Cc1ccc(-n2cnc3c(sc4nccc(CN(CC5CC5)CC5CC5)c43)c2=O)cc1 [169B]	

pIC50 [1]	pIC50 [2]	Compound	other results
	6.82 to 7.30	CCc1ccc(-n2cnc3c(sc4nc(C)cc(N(C)C)c43)c2=O)cc1 [7CP]	
	> 7.30	CCNc1ccnc2sc3c(=O)n(-c4ccc(C)cc4)c(C)nc3c12 [113H]	
6.00 to 6.82		COc1ccc(-n2cnc3c(sc4nc(C)nc(N)c43)c2=O)cc1 [95EU]	
> 7.30		C#CCOc1ccnc2sc3c(=O)n(-c4ccc(Cl)cc4)cnc3c12 [66G]	
> 7.30		CCNc1ccnc2sc3c(=O)n(-c4ccc(OC)c(F)c4)cnc3c12 [28FZ]	
> 7.30		C[C@@H](O)CNc1ccnc2sc3c(=O)n(-c4ccc(Br)cc4)cnc3c12 [28HB]	
	< 6.00	O=c1c2sc3nccc(N4CC[C@H](O)C4)c3c2ncn1C1CCCCC1 [28N]	
	> 7.30	CN(C)c1ccnc2sc3c(=O)n(C4CCCCCC4)cnc3c12 [7X]	pIC50 [3]: 9.17
6.00 to 6.82		COc1ccc(-n2cnc3c(sc4ncnc(Nc5cccc(C#N)c5)c43)c2=O)cc1 [190I]	
> 7.30		COc1ccc(-n2cnc3c(sc4nccc(NCCC(C)O)c43)c2=O)cc1 (stereo not shown) [28HP]	
> 7.30		CCNc1ncnc2sc3c(=O)n(-c4ccc(OC)c(F)c4)cnc3c12 [95BL]	
	< 6.00	Cc1ccc(-n2cnc3c([nH]c4nccc(N(C)C)c43)c2=O)cc1 [135A]	
	6.00 to 6.82	O=c1c2sc3nccc(N4CCC4)c3c2ncn1C1CCCCC1 [28V]	
	< 6.00	CCOC(=O)N1CCC(n2cnc3c(sc4nccc(N(C)C)c43)c2=O)CC1 [7J]	
6.00 to 6.82		Cc1ccc(-n2cnc3c(sc4ncnc(NCc5cccs5)c43)c2=O)cc1 [95FV]	
> 7.30		COc1ccc(-n2cnc3c(sc4nccc(NCCCO)c43)c2=O)cc1 [28HK]	
6.00 to 6.82		CN(C)c1ccnc2sc3c(=O)n(-c4ccncc4)cnc3c12 [28EE]	
> 7.30		CNc1ncnc2sc3c(=O)n(-c4ccc(Br)cc4)cnc3c12 [95BD]	
	> 7.30	CCN(C)c1ccnc2sc3c(=O)n(-c4ccc(C)cc4)c(C)nc3c12 [113I]	
	6.00 to 6.82	CCN(CC)c1ccnc2sc3c(=O)n(C4CCCCC4)cnc3c12 [28J]	
	< 6.00	CN(C)c1ccnc2sc3c(=O)n(C4CCNCC4)cnc3c12 [15G]	
> 7.30		CC(O)CCNc1ccnc2sc3c(=O)n(-c4ccc(Cl)cc4)cnc3c12 (stereo not shown) [28HM]	
	< 6.00	Cc1nc2ccc(-n3cnc4c(sc5nccc(N(C)C)c54)c3=O)cc2[nH]1 [7BV]	
